Measured values: the NIST ThermoML archive (doi:10.1021/je200830j)

Key:
[1] = 101.33 kPa, Liquid; for mass density: Vibrating tube method; for viscosity: Vibrating wire viscometry
[2] = xn = mol fraction of the nth substance listed; conditions: 101 kPa, Liquid, Capillary tube (Ostwald / Ubbelohde) method

CCCCCCCCCCCCCC[P+](CCCCCC)(CCCCCC)CCCCCC.N#C[N-]C#N [tetradecyl(trihexyl)phosphonium dicyanamide]
[1]
Conditions	mass density [kg/m3]	viscosity [mPa·s]
290.66 K	902.3	–
293.14 K	–	505.9
293.15 K	900.9	–
293.16 K	900.9	–
295.65 K	899.5	–
295.66 K	899.5	–
298.15 K	898	–
298.16 K	898	–
298.2 K	–	378
300.65 K	896.6	–
300.66 K	896.6	–
303.15 K	895.1	–
303.16 K	895.1	–
303.18 K	–	288
305.65 K	893.7	–
308.15 K	892.3	–
308.16 K	892.3	–
308.2 K	–	219.9
310.65 K	890.9	–
310.66 K	890.9	–
313.15 K	889.5	–
313.16 K	889.5	–
313.18 K	–	171.1
315.65 K	888.1	–
318.15 K	886.7	–
318.19 K	–	134.4
320.65 K	885.3	–

CCCCCCCCCCCCCC[P+](CCCCCC)(CCCCCC)CCCCCC.N#C[N-]C#N [tetradecyl(trihexyl)phosphonium dicyanamide] + O
[2]
Conditions	viscosity [mPa·s]
298.17 K, x2 = 0.275	372.8
298.17 K, x2 = 0.4	362.7
303.11 K, x2 = 0.198	284.53
303.13 K, x2 = 0.275	282.44
308.09 K, x2 = 0.275	217.15
317.92 K, x2 = 0.198	135.23
